Reference: patent publication US10722514B2 (FLX Bio, Inc., priority 2017, dated 2020)
Counter-ions that a name gives are not always drawn.

These molecules were tested against T1, recombinant full-length USP7 (Homo sapiens, UniProt Q93009) (assay: USP7-mediated ubiquitin-rhodamine cleavage assay). Details: recombinant full-length USP7 62 pM; ubiquitin-rhodamine 100 nM; 30-minute incubation with compound, 1 hour reaction at room temperature; read-out: Potency: USP7 IC50.
T1 construct: A 25 μl reaction volume containing recombinant full-length USP7 (62 pM)
T1 sequence (Q93009 whole entry): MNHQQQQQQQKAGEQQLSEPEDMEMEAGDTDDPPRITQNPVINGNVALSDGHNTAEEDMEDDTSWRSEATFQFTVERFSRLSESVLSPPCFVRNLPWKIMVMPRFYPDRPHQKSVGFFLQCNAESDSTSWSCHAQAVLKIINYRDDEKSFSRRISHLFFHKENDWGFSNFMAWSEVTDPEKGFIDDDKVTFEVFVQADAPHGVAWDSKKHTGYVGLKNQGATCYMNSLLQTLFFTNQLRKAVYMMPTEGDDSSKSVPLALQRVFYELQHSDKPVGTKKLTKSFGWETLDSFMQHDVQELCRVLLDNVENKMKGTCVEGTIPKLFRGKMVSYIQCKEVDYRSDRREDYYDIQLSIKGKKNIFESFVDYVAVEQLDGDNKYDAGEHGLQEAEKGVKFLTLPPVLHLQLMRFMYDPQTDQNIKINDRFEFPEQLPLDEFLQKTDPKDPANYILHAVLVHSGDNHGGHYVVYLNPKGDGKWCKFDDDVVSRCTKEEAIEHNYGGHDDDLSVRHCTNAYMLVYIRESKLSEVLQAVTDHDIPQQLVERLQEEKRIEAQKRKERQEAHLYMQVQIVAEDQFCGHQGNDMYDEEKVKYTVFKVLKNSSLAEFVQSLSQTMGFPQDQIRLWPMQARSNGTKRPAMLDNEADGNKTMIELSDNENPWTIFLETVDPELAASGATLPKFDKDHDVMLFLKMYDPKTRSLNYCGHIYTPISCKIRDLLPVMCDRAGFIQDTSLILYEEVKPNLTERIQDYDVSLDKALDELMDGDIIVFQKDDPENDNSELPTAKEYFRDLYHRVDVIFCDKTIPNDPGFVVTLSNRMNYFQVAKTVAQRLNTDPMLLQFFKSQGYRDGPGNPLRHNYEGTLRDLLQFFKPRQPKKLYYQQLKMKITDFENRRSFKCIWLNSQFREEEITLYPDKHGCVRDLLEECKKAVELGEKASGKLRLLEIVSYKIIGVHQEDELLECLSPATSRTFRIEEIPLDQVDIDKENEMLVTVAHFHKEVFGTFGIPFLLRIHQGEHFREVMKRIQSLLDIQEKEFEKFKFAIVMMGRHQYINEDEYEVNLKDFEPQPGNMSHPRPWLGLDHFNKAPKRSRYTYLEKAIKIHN
Assay type: biochemical
How it was run: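 USP7 (62 pM) in 20 mM HEPES pH 7.3, 150 mM NaCl, 1 mM TCEP, 125 μg/ml BSA was preincubated with compound (1% DMSO) for 30 min at room temperature. Ubiquitin-rhodamine (100 nM final) was then added for 1 hour, the reaction stopped with acetic acid, and fluorescence read; IC50 from 4-parameter fit.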

| IC50 | SMILES |
| --- | --- |
| 1 to 10 µM | Cc1cc(C#N)cc(-c2ccnc3cc(CO)sc23)c1OCC1(C#N)CNC1 [Example 11, 3-((4-Cyano-2-(2-(hydroxymethyl)thieno[3,2-b]pyridin-7-yl)-6-methylphenoxy)methyl)azetidine-3-carbonitrile] |
| 10 to 30 µM | Cc1cc(Cl)cc(-c2ccnc3cc(CO)sc23)c1OC(C)C1CNC1 (centres unmarked) [Example 32, (7-(2-(1-(Azetidin-3-yl)ethoxy)-5-chloro-3-methylphenyl)thieno[3,2-b]pyridin-2-yl)methanol] |
| 1 to 10 µM | Cc1cc2nccc(-c3cc(Cl)ccc3OCC3CNC3)c2s1 [Example 28, 7-(2-(Azetidin-3-ylmethoxy)-5-chlorophenyl)-2-methylthieno[3,2-b]pyridine] |
| 10 to 30 µM | Cc1cc(Cl)cc(-c2ncnc3ccsc23)c1OCC1(C)CNC1 [Example 26, 4-(5-Chloro-3-methyl-2-((3-methylazetidin-3-yl)methoxy)phenyl)thieno[3,2-d]pyrimidine] |
| 10 to 30 µM | Cc1cc(Cl)cc(-c2ccnc3cc(CO)sc23)c1OC[C@H]1CCN1 [Example 16, (R)-(7-(2-(Azetidin-2-ylmethoxy)-5-chloro-3-methylphenyl)thieno[3,2-b]pyridin-2-yl)methanol] |
| 1 to 10 µM | CCc1cc(Cl)cc(-c2ccnc3cc(CO)sc23)c1OCC1CNC1 [Example 22, (7-(2-(Azetidin-3-ylmethoxy)-5-chloro-3-ethylphenyl)thieno[3,2-b]pyridin-2-yl)methanol] |
| < 1 µM | Cc1cc(Cl)cc(-c2ncnc3cc(CN4C(=O)C5C(C4=O)C5(C)C)sc23)c1O[C@H]1CC[C@H](C)NC1 (stereo partly drawn) [Example 339, 3-[[4-[5-chloro-3-methyl-2-[[(3S,6S)-6-methyl-3-piperidyl]oxy]phenyl]thieno[3,2-d]pyrimidin-6-yl]methyl]-6,6-dimethyl-3-azabicyclo[3.1.0]hexane-2,4-dione dihydrochloride] |
| < 1 µM | Cc1cc(Cl)cc(-c2ccnc3cc(CN4C(=O)CCC4=O)sc23)c1O[C@H]1CC[C@H](N)C1 [Example 127, 1-((7-(2-(((1S,3S)-3-Aminocyclopentyl)oxy)-5-chloro-3-methylphenyl)thieno[3,2-b]pyridin-2-yl)methyl)pyrrolidine-2,5-dione] |
| < 1 µM | Cc1cc(Cl)cc(-c2ccnc3cc(CN4C(=O)CCC4=O)sc23)c1O[C@@H]1CN(CC(C)(C)C)C[C@@H]1F [Example 336, 1-[[7-[5-chloro-2-[(3R,4S)-1-(2,2-dimethylpropyl)-4-fluoro-pyrrolidin-3-yl]oxy-3-methyl-phenyl]thieno[3,2-b]pyridin-2-yl]methyl]pyrrolidine-2,5-dione] |
| 1 to 10 µM | CCC(O)c1cc2ncnc(-c3cc(Cl)cc(C)c3OC3CCNCC3)c2s1 (centres unmarked) [Example 181, 1-(4-(5-Chloro-3-methyl-2-(piperidin-4-yloxy)phenyl)thieno[3,2-d]pyrimidin-6-yl)propan-1-ol] |
| < 1 µM | Cc1cc(Cl)cc(-c2ncnc3cc(Cn4c(=O)ccn(C)c4=O)sc23)c1OC1CCNCC1 [Example 232, 3-((4-(5-Chloro-3-methyl-2-(piperidin-4-yloxy)phenyl)thieno[3,2-d]pyrimidin-6-yl)methyl)-1-methylpyrimidine-2,4(1H,3H)-dione] |
| 1 to 10 µM | CCC(O)c1cc2nccc(-c3cc(Cl)cc(C)c3O[C@@H]3CNC[C@@H]3F)c2s1 (stereo partly drawn) [Example 82, 1-(7-(5-Chloro-2-(((3R,4S)-4-fluoropyrrolidin-3-yl)oxy)-3-methylphenyl)thieno[3,2-b]pyridin-2-yl)propan-1-ol] |
| < 1 µM | Cc1cc(Cl)cc(-c2ccnc3c(F)c(CN4C(=O)CCC4=O)sc23)c1OC1CCNCC1 [Example 242, 1-((7-(5-Chloro-3-methyl-2-(piperidin-4-yloxy)phenyl)-3-fluorothieno[3,2-b]pyridin-2-yl)methyl)pyrrolidine-2,5-dione] |
| 1 to 10 µM | Cc1cc(Cl)cc(-c2ccnc3cc(CO)sc23)c1O[C@@H]1CNC[C@@H]1N=[N+]=[N-] [Example 191, (7-(2-(((3R,4S)-4-Azidopyrrolidin-3-yl)oxy)-5-chloro-3-methylphenyl)thieno[3,2-b]pyridin-2-yl)methanol] |
| 1 to 10 µM | Cc1cc(Cl)cc(-c2ccnc3cc([C@H](C)N4C(=O)CCC4=O)sc23)c1OC1CCNCC1 [Example 1, (S)-1-(1-(7-(5-Chloro-3-methyl-2-(piperidin-4-yloxy)phenyl)thieno[3,2-b]pyridin-2-yl)ethyl)pyrrolidine-2,5-dione] |
| < 1 µM | CCN1C[C@H](F)[C@H](Oc2c(C)cc(Cl)cc2-c2ccnc3cc(CN4C(=O)CCC4=O)sc23)C1 [Example 299, 1-[[7-[5-chloro-2-[(3R,4S)-1-ethyl-4-fluoro-pyrrolidin-3-yl]oxy-3-methyl-phenyl]thieno[3,2-b]pyridin-2-yl]methyl]pyrrolidine-2,5-dione] |

| SMILES | IC50 |
| --- | --- |
| Cc1cc(Cl)cc(-c2ccnc3cc(CN4C(=O)C5C(C4=O)C5(C)C)sc23)c1O[C@H]1CC[C@H](N)C1 (stereo partly drawn) [Example 394, 3-[[7-[2-[(1S,3S)-3-aminocyclopentoxy]-5-chloro-3-methyl-phenyl]thieno[3,2-b]pyridin-2-yl]methyl]-6,6-dimethyl-3-azabicyclo[3.1.0]hexane-2,4-dione dihydrochloride] | < 1 µM |

Same assay, conditions: recombinant full-length USP7 62 pM; ubiquitin-rhodamine 100 nM; 30-minute incubation, 1 hour reaction at room temperature; read-out: Potency (USP7 IC50)

| IC50 | SMILES |
| --- | --- |
| < 1 µM | Cc1cc(Cl)cc(-c2ccnc3cc(Cn4c(=O)ccn(CC(F)(F)F)c4=O)sc23)c1O[C@H]1C[C@@H]2NCCO[C@H]2C1 [Example 694, 3-[[7-[2-[[(4aS,6S,7aS)-2,3,4,4a,5,6,7,7a-octahydrocyclopenta[b][1,4]oxazin-6-yl]oxy]-5-chloro-3-methyl-phenyl]thieno[3,2-b]pyridin-2-yl]methyl]-1-(2,2,2-trifluoroethyl)pyrimidine-2,4-dione] |

Same assay, conditions: recombinant full-length USP7 62 pM; ubiquitin-rhodamine 100 nM; 30-minute pre-incubation, 1 hour reaction at room temperature; read-out: Potency (USP7 IC50)

| IC50 | SMILES |
| --- | --- |
| < 1 µM | Cc1cc(Cl)cc(-c2ccnc3cc(Cn4c(=O)ccn(C(C)C)c4=O)sc23)c1O[C@H]1CCCNC1 [Example 447, 3-[[7-[5-chloro-3-methyl-2-[[(3S)-3-piperidyl]oxy]phenyl]thieno[3,2-b]pyridin-2-yl]methyl]-1-isopropyl-pyrimidine-2,4-dione] |
| < 1 µM | Cc1cc(Cl)cc(-c2ccnc3cc(Cn4c(=O)ccn(CC(F)(F)F)c4=O)sc23)c1OCCN1CCOCC1 [Example 662, 3-[[7-[5-chloro-3-methyl-2-(2-morpholinoethoxy)phenyl]thieno[3,2-b]pyridin-2-yl]methyl]-1-(2,2,2-trifluoroethyl)pyrimidine-2,4-dione; 2,2,2-trifluoroacetic acid] |
| < 1 µM | Cc1cc(Cl)cc(-c2ccnc3cc(Cn4c(=O)ccn(C(C)C)c4=O)sc23)c1O[C@@H]1CNC[C@@H]1F [Example 451, 3-[[7-[5-chloro-2-[(3R,4S)-4-fluoropyrrolidin-3-yl]oxy-3-methyl-phenyl]thieno[3,2-b]pyridin-2-yl]methyl]-1-isopropyl-pyrimidine-2,4-dione] |
| < 1 µM | Cc1cc(Cl)cc(-c2ccnc3cc(Cn4c(=O)ccn(CC(F)(F)F)c4=O)sc23)c1OCC1COC1 [Example 669, 3-[[7-[5-chloro-3-methyl-2-(oxetan-3-ylmethoxy)phenyl]thieno[3,2-b]pyridin-2-yl]methyl]-1-(2,2,2-trifluoroethyl)pyrimidine-2,4-dione] |
| < 1 µM | Cc1cc(Cl)cc(-c2ccnc3cc(Cn4c(=O)ccn(CC(F)(F)F)c4=O)sc23)c1O[C@@H]1CCN(C2CCOC2)C[C@H]1C (stereo partly drawn) [Example 608, 3-[[7-[5-chloro-3-methyl-2-[[(3R,4R)-3-methyl-1-tetrahydrofuran-3-yl-4-piperidyl]oxy]phenyl]thieno[3,2-b]pyridin-2-yl]methyl]-1-(2,2,2-trifluoroethyl)pyrimidine-2,4-dione] |
| < 1 µM | Cc1cc(Cl)cc(-c2ccnc3cc(Cn4c(=O)ccn(C)c4=O)sc23)c1OC1CC2CC1N(C)C2 (centres unmarked) [Example 465] |
| < 1 µM | Cc1cc(Cl)cc(-c2ncnc3cc(Cn4c(=O)ccn(CC(F)(F)F)c4=O)sc23)c1O[C@@H]1CNC[C@@H]1C [Example 595, 3-[[4-[5-chloro-3-methyl-2-[(3S,4S)-4-methylpyrrolidin-3-yl]oxy-phenyl]thieno[3,2-d]pyrimidin-6-yl]methyl]-1-(2,2,2-trifluoroethyl)pyrimidine-2,4-dione] |
| < 1 µM | Cc1cc(Cl)cc(-c2ncnc3cc(Cn4c(=O)ccn(CC(F)(F)F)c4=O)sc23)c1O[C@H]1CCNC[C@H]1C [Example 585, 3-[[4-[5-chloro-3-methyl-2-[[(3R,4S)-3-methyl-4-piperidyl]oxy]phenyl]thieno[3,2-d]pyrimidin-6-yl]methyl]-1-(2,2,2-trifluoroethyl)pyrimidine-2,4-dione] |

| SMILES | IC50 |
| --- | --- |
| Cc1cc(Cl)cc(-c2ccnc3cc(CN4C(=O)CCC4=O)sc23)c1OC1CC(N)C1 (centres unmarked) [Example 413, 1-[[7-[2-(3-aminocyclobutoxy)-5-chloro-3-methyl-phenyl]thieno[3,2-b]pyridin-2-yl]methyl]pyrrolidine-2,5-dione dihydrochloride] | < 1 µM |
| Cc1cc(Cl)cc(-c2ccnc3cc(Cn4c(=O)ccn(C)c4=O)sc23)c1O[C@@H]1CC[C@](C)(N)C1 [Example 519, 3-[[7-[2-[(1R,3S)-3-amino-3-methyl-cyclopentoxy]-5-chloro-3-methyl-phenyl]thieno[3,2-b]pyridin-2-yl]methyl]-1-methyl-pyrimidine-2,4-dione; 2,2,2-trifluoroacetic acid] | < 1 µM |
| Cc1cc(Cl)cc(-c2ccnc3cc(Cn4c(=O)ccn(CC(F)(F)F)c4=O)sc23)c1O[C@H]1CC[C@](C)(N2CCOCC2)C1 [Example 612, 3-[[7-[5-chloro-3-methyl-2-[(1S,3S)-3-methyl-3-morpholino-cyclopentoxy]phenyl]thieno[3,2-b]pyridin-2-yl]methyl]-1-(2,2,2-trifluoroethyl)pyrimidine-2,4-dione; 2,2,2-trifluoroacetic acid] | < 1 µM |
